# Measured values as given in patent US20260224571A1, “AZACYCLOALKANE COMPOUND AND PHARMACEUTICAL COMPOSITION, AND USE THEREOF” (Prime Gene Therapeutics Co., Ltd., priority 2023, published 2026).
# Experiments:
# [1] = molecular target: ROCK1 (Homo sapiens, UniProt Q13464); assay: ROCK1 kinase enzymatic activity (HTRF, STK2 substrate); format: biochemical; conditions: ROCK1 kinase reacted at room temperature for 20 minutes
# Description: (§1) The kinase activity data was expressed by comparing the kinase activity of the test compound and that of the blank group (containing only DMSO), and the IC50 value was obtained by curve fitting using Prism software (GraphPad7.0).
# [2] = molecular target: ROCK2 (Homo sapiens, UniProt O75116); assay: ROCK2 kinase enzymatic activity (HTRF, STK2 substrate); format: biochemical; conditions: ROCK2 kinase reacted at room temperature for 30 minutes
# Description: as §1
# ROCK1, sequence (Q13464 whole entry): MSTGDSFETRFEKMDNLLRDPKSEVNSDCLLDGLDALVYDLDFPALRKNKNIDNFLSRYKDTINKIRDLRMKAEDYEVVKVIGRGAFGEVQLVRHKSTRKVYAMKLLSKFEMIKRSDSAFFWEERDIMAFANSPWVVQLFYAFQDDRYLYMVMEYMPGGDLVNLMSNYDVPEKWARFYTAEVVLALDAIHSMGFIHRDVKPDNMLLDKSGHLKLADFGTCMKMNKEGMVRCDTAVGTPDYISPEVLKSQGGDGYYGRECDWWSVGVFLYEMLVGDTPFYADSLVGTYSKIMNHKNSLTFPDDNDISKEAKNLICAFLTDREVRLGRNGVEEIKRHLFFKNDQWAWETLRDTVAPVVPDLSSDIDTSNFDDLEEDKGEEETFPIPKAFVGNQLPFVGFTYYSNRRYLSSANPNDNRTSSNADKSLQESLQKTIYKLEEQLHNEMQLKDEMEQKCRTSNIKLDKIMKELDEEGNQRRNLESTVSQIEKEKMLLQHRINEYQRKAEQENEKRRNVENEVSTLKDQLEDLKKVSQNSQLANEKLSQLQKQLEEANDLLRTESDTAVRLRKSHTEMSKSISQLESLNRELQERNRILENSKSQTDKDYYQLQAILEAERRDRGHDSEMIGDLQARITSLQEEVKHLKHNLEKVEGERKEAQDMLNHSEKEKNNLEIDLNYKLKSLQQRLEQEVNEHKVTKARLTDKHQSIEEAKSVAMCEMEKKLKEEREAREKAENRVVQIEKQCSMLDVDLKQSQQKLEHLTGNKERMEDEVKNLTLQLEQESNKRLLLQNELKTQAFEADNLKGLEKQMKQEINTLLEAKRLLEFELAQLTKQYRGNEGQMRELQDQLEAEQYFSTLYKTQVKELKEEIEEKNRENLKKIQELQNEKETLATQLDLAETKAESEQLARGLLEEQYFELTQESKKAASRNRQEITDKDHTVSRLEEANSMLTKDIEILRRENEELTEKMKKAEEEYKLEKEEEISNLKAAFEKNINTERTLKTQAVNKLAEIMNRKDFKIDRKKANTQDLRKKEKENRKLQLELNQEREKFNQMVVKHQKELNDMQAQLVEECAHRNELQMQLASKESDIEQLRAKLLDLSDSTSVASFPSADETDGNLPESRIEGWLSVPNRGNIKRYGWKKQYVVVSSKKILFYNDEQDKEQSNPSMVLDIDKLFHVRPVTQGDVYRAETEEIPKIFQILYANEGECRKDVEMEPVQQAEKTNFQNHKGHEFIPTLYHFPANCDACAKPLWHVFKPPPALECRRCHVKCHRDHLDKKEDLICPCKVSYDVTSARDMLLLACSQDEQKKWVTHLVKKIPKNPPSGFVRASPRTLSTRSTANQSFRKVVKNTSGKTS
# ROCK2, sequence (O75116 whole entry): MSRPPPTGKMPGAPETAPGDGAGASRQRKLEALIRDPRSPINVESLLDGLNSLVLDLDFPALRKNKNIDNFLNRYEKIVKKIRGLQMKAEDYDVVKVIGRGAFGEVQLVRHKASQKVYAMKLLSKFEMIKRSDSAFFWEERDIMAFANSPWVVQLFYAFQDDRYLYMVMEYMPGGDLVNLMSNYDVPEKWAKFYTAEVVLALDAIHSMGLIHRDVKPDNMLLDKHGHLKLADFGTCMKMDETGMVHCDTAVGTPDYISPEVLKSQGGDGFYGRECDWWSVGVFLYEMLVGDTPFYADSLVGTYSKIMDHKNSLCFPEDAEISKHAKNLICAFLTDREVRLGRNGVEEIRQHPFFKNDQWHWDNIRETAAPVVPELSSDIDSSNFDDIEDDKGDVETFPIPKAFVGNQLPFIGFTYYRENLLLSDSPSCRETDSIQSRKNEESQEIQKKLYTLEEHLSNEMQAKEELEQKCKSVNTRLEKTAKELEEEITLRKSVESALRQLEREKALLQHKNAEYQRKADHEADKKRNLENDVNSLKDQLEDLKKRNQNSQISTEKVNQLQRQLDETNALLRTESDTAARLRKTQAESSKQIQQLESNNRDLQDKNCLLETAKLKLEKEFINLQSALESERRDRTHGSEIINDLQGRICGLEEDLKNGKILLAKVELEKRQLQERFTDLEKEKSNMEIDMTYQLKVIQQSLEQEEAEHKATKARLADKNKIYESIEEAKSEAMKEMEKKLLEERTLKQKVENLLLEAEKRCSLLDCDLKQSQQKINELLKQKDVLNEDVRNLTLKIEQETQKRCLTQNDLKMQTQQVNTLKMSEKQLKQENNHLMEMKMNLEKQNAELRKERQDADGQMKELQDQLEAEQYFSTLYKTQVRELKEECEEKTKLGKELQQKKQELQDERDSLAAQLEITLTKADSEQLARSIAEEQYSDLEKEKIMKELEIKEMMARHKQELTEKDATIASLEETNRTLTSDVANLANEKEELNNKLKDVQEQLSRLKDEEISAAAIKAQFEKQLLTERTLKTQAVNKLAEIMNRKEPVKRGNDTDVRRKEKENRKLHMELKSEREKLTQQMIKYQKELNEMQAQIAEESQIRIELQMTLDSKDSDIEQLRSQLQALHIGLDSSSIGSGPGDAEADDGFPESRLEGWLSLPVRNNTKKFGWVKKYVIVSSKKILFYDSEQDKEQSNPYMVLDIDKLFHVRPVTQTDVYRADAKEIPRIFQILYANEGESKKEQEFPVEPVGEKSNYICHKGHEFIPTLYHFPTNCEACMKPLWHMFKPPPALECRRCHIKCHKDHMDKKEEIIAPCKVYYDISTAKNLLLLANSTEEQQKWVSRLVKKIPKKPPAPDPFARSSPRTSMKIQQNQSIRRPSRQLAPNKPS
Structure (SMILES),IC50 [1] [nM],IC50 [2] [nM]
"N#CCC1(n2cc(-c3ncnc4[nH]ccc34)c(N)n2)CN(S(=O)(=O)CCC(F)(F)F)C1 [Example 4, 2-(3-(3-amino-4-(7H-pyrrolo[2,3-d]pyrimidin-4-yl)-1H-pyrazol-1-yl)-1-((3,3,3-trifluoropropyl)sulfonyl)azetidine-3-yl)acetonitrile]",< 5,< 5
N#CCC1(n2cc(-c3ncnc4[nH]ccc34)c(N)n2)CN(S(=O)(=O)CC(=O)NN)C1 [Example 9],< 10,< 10
"CNC(=O)N1CC(CC#N)(n2cc(-c3ncnc4[nH]ccc34)c(N)n2)C1 [Example 10, 3-(3-amino-4-{7H-pyrrolo[2,3-d]pyrimidin-4-yl}pyrazol-1-yl)-3-(cyanomethyl)-N-methylazetidine-1-formamide]",< 5,< 5
"N#CCC1(n2cc(-c3ncnc4[nH]ccc34)c(N)n2)CN(C(=O)NCC(F)(F)F)C1 [Example 11, 3-(3-amino-4-(7H-pyrrolo[2,3-d]pyrimidin-4-yl)-1H-pyrazol-1-yl)-3-(cyanomethyl)-N-(2,2,2-trifluoroethyl)azetidine-1-formamide]",< 10,< 10
"N#CCC1(n2cc(-c3ncnc4[nH]ccc34)c(N)n2)CN(C(=O)NC2CC2)C1 [Example 12, 3-(3-amino-4-(7H-pyrrolo[2,3-d]pyrimidin-4-yl)-1H-pyrazol-1-yl)-3-(cyanomethyl)-N-cyclopropylazetidine-1-formamide]",< 50,< 50
"N#CCC1(n2cc(-c3ncnc4[nH]ccc34)c(N)n2)CN(C(=O)N2CC(F)(F)C2)C1 [Example 13, 2-(3-(3-amino-4-(7H-pyrrolo[2,3-d]pyrimidin-4-yl)-1H-pyrazol-1-yl)-1-(3,3-difluoroazetidine-1-carbonyl)azetidin-3-yl)acetonitrile]",< 50,< 50
"CCNC(=O)N1CC(CC#N)(n2cc(-c3ncnc4[nH]ccc34)c(N)n2)C1 [Example 14, 3-(3-amino-4-(7H-pyrrolo[2,3-d]pyrimidin-4-yl)-1H-pyrazol-1-yl)-3-(cyanomethyl)-N-ethylazetidine-1-formamide]",< 5,< 5
"CC(C)NC(=O)N1CC(CC#N)(n2cc(-c3ncnc4[nH]ccc34)c(N)n2)C1 [Example 15, 3-(3-amino-4-(7H-pyrrolo[2,3-d]pyrimidin-4-yl)-1H-pyrazol-1-yl)-3-(cyanomethyl)-N-isopropylaza-1-formamide]",< 50,< 50
"C[C@H](NC(=O)N1CC(CC#N)(n2cc(-c3ncnc4[nH]ccc34)c(N)n2)C1)C(F)(F)F [Example 16, (S)-3-(3-amino-4-(7H-pyrrolo[2,3-d]pyrimidin-4-yl)-1H-pyrazol-1-yl)-3-(cyanomethyl)-N-(1,1,1-trifluoropropan-2-yl)azetidine-1-formamide]",< 50,< 50
"N#CCC1(n2cc(-c3ncnc4[nH]ccc34)c(N)n2)CN(C(=O)NCCO)C1 [Example 17, 3-(3-amino-4-(7H-pyrrolo[2,3-d]pyrimidin-4-yl)-1H-pyrazol-1-yl)-3-(cyanomethyl)-N-(2-hydroxyethyl)azetidine-1-formamide]",< 50,< 50
"N#CCC1(n2cc(-c3ncnc4[nH]ccc34)c(N)n2)CN(C(=O)N[C@H]2CC2(F)F)C1 [Example 20, (S)-3-(3-amino-4-(7H-pyrrolo[2,3-d]pyrimidin-4-yl)-1H-pyrazol-1-yl)-3-(cyanomethyl)-N-(2,2-difluorocyclopropyl)azetidine-1-formamide]",< 10,< 10
"N#CCC(=O)N1CC(CC#N)(n2cc(-c3ncnc4[nH]ccc34)c(N)n2)C1 [Example 21, 3-(3-(3-amino-4-(7H-pyrrolo[2,3-d]pyrimidin-4-yl)-1H-pyrazol-1-yl)-3-(cyanomethyl)azetidine-1-yl]-3-oxopropionitrile]",< 5,< 10
"N#CCC1(n2cc(-c3ncnc4[nH]ccc34)c(N)n2)CN(C(=O)C2CC2)C1 [Example 22, 2-(3-(3-amino-4-(7H-pyrrolo[2,3-d]pyrimidin-4-yl)-1H-pyrazol-1-yl)-1-(cyclopropanecarbonyl)azetidine-3-yl)acetonitrile]",< 50,< 50
"C[C@H](N)C(=O)N1CC(CC#N)(n2cc(-c3ncnc4[nH]ccc34)c(N)n2)C1 [Example 23, 2-(1-alaninyl-3-(3-amino-4-(7H-pyrrolo[2,3-d]pyrimidin-4-yl)-1H-pyrazol-1-yl)azetidine-3-yl)acetonitrile]",< 50,< 50
"N#CCC1(n2cc(-c3ncnc4[nH]ccc34)c(N)n2)CN(C(=O)C2(F)CC2)C1 [Example 24, 2-(3-(3-amino-4-(7H-pyrrolo[2,3-d]pyrimidin-4-yl)-1H-pyrazol-1-yl)-1-(1-fluorocyclopropane-1-carbonyl)azetidine-3-yl)acetonitrile]",< 50,< 50
"N#CCC1(n2cc(-c3ncnc4[nH]ccc34)c(N)n2)CN(C(=O)C2(C(F)(F)F)CC2)C1 [Example 25, 2-(3-(3-amino-4-(7H-pyrrolo[2,3-d]pyrimidin-4-yl)-1H-pyrazol-1-yl)-1-(1-(trifluoromethyl)cyclopropane-1-carbonyl)azetidine-3-yl)acetonitrile]",< 10,< 10
"N#CCC1(n2cc(-c3ncnc4[nH]ccc34)c(N)n2)CN(C(=O)C2(C#N)CC2)C1 [Example 26, 1-(3-(3-amino-4-(7H-pyrrolo[2,3-d]pyrimidin-4-yl)-1H-pyrazol-1-yl)-3-(cyanomethyl)azetidine-1-carbonyl)cyclopropane-1-nitrile]",< 10,< 10
N#CCC1(n2cc(-c3ncnc4[nH]ccc34)c(N)n2)CN(C(=O)C(F)(F)C(F)(F)F)C1 [Example 27],< 10,< 10
"CN(C)CC(=O)N1CC(CC#N)(n2cc(-c3ncnc4[nH]ccc34)c(N)n2)C1 [Example 28, 2-(3-(3-amino-4-(7H-pyrrolo[2,3-d]pyrimidin-4-yl)-1H-pyrazol-1-yl)-1-(dimethylglycine)azetidine-3-yl)acetonitrile]",< 50,< 50
"N#CCN1CC(CC#N)(n2cc(-c3ncnc4[nH]ccc34)c(N)n2)C1 [Example 29, 2,2′-(3-(3-amino-4-(7H-pyrrolo[2,3-d]pyrimidin-4-yl)-1H-pyrazol-1-yl)azetidine-1,3-diyl)diacetonitrile]",< 10,< 10
N#CCC1(n2cc(-c3ncnc4[nH]ccc34)c(N)n2)CN(C(=O)CC(F)(F)F)C1 [Example 30],< 5,< 10
"N#CCC1(n2cc(-c3ncnc4[nH]ccc34)c(N)n2)CN(C(=O)C2CC(F)(F)C2)C1 [Example 32, 2-(3-(3-amino-4-(7H-pyrrolo[2,3-d]pyrimidin-4-yl)-1H-pyrazol-1-yl)-1-(3,3-difluorocyclobutane-1-carbonyl)azetidine-3-yl)acetonitrile]",< 5,< 10
"C[C@H](O)C(=O)N1CC(CC#N)(n2cc(-c3ncnc4[nH]ccc34)c(N)n2)C1 [Example 33, (S)-2-(3-(3-amino-4-(7H-pyrrolo[2,3-d]pyrimidin-4-yl)-1H-pyrazol-1-yl)-1-(2-hydroxypropionyl)azetidine-3-yl)acetonitrile]",< 10,< 10
